The values below come from US11970483B2, “Heterocyclic compound” (Takeda Pharmaceutical Company Limited, priority 2018, dated 2024).

For orientation: EC50 means the concentration giving half of the maximal effect. For orientation: clearance means a measure of how efficiently the substance is removed, as volume per time.

Molecules are shown by their SMILES.

Data set [1] concerns the target T1, human M1 receptor (hCHRM1) (Homo sapiens, UniProt P11229).
T1 construct: expressed in transfected cells
T1 sequence (P11229 1-460): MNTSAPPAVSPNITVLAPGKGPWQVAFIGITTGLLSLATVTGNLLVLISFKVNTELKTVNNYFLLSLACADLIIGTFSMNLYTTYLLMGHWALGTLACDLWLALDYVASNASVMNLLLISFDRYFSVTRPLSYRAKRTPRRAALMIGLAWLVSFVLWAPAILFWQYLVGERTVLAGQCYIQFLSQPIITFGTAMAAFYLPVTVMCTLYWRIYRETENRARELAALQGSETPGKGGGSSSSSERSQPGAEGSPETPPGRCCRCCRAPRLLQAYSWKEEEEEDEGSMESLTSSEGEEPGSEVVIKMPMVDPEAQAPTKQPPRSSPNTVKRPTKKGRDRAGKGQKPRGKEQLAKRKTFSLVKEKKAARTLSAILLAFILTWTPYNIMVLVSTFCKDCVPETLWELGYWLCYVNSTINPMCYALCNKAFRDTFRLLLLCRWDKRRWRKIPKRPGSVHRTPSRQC
As to the kind of experiment: Measurement of M1 receptor positive allosteric modulator (M1PAM) activity (IP1 HTRF, in presence of EC20 acetylcholine). Format: cell-based. The conditions noted are these: CHO-K1 cells stably expressing hCHRM1; acetylcholine at EC20 concentration; IP1 readout. How it is done: Measurement of M1 Receptor Positive Allosteric Modulator (M1PAM) Activity
The activity of a test compound in the presence of acetylcholine at an EC20 concentration affording about 20% action of the maximum activity was measured as PAM activity.
The method therefor is as follows. To a 384-well white plate (Greiner) was added 4 μL of the test compound diluted with IP1 Stimulation buffer (CisBio) containing 0.1% fatty acid-free BSA containing 80 nM acetylcholine. Freeze stock of CHO-K1 cells stably expressing human M1 receptor (hCHRM1) was prepared with IP1 Stimulation buffer (CisBio) containing 0.1% fatty acid-free BSA, 4 μL thereof was added (10,000 cells/well) and the mixture was cultured in a 5% CO2 incubator at 37° C. for 1 hr. 4 μL of a solution (CisBio) containing IP1-d2 and Anti-IP1-cryptate Tb conjugate was added, the mixture was incubated at room temperature for 1 hr, and the time-resolved fluorescence signal was measured on an Envision plate reader (PerkinElmer). The activity (%) of the test compound was calculated by defining the value when acetylcholine was added at the final concentration of 20 μM as 100% and the value when DMSO was added instead of the test compound under acetylcholine-free conditions as 0%, and the EC50 value was calculated as a value of 50% of the concentration dependence curve of the test compound.
A general note: TR-FRET usually uses a lanthanide donor and a delayed reading to cut background.

Data set [2] in a line: Rat PK test (cassette dosing). Format: in vivo. To be noted: male SD rats, plasma; for clearance / MRT: intravenous 0.1 mg/kg, 10 compounds cassette; for clearance: read-out: CL total (total clearance) (converted); for MRT: read-out: MRT iv (mean residence time, intravenous administration); for Tmax: oral administration 1 mg/kg, 5 compounds cassette, read-out: Tmax (time to reach maximum plasma concentration). The protocol: As the rat, 8-week-old male SD rats (Japan SLC, Inc.) were used. They were fed on a solid commercially available diet (CE-2, CLEA Japan, Inc.) and allowed to freely ingest tap water as the drinking water. An intravenous administration solution for the rats was prepared by weighing a test compound, dissolving same in dimethylacetamide (DMA) (Wako Pure Chemical Industries, Ltd.), adding the same volume of 1,3-butanediol (Wako Pure Chemical Industries, Ltd.) and mixing by stirring to give a DMA:1,3-butanediol (1:1, v/v) solution. An oral administration solution was prepared by weighing a test compound, pulverizing same in an agate mortar, and gradually adding 0.5 w/v % aqueous methylcellulose solution to give a suspension. For intravenous administration, the solution was administered into femoral vein of the rats at 0.1 mg/0.5 mL/kg (salt converted to free form). For oral administration, the suspension was administered to the rats at 1 mg/5 mL/kg (salt converted to free form). The cassette dosing method was used for the both administration routes, and the test compound was administered in the following manner.
Compound of Example 1 (intravenous: 10 compounds cassette administration, oral: 5 compounds cassette administration)
Compound of Example 27 (intravenous: 10 compounds cassette administration, oral: 5 compounds cassette administration)
Compound of Example 28 (intravenous: 10 compounds cassette administration, oral: 5 compounds cassette administration)
Compound of Example 29 (intravenous: 10 compounds cassette administration, oral: 5 compounds cassette administration)
In the case of intravenous administration, blood samples were collected from the tail vein at 5, 10, 15, 30 min, 1, 2, 4, 8 hr after administration, an anticoagulation treatment with heparin sodium (Shimizu Pharmaceutical Co., Ltd.) was performed, and plasma was collected after centrifugation and subjected to the measurement of drug concentration. In the case of oral administration, blood samples were collected from the tail vein at 15, 30 min, 1, 2, 4, 8 hr after administration, an anticoagulation treatment with heparin sodium was performed, and plasma was collected after centrifugation and subjected to the measurement of drug concentration.
All drug concentrations were measured by LC-MS/MS analysis. For a pharmacokinetics test, the plasma (50 μL) was placed in a tube, acetonitrile (150 μL) containing internal standard solution was added and they were mixed on a vortex mixer. Thereafter, the mixture was centrifuged (5000 rpm, 5 min, 4° C.). The supernatant (60 μL) after centrifugation was added to 10 mmol/L ammonium formate (160 μL) added earlier and mixed therewith. This sample was injected to LC/MS/MS. The HPLC system used was Shimadzu LC-20A (Shimadzu Corporation), the column used was Unison UK-C18 HT (3.0 μm, 2.0×20 mm, Imtakt) at 50° C., and 10 mmol/L ammonium formate, 0.2% formic acid as mobile phase A and acetonitrile, 0.2% formic acid as mobile phase B were fed each at a flow rate of 1.2 mL/min under gradient conditions of (B concentration: 0 min→0.1 min, 5%, 0.1→0.75 min, 5-99%, 0.75→1.15 min, 99%, 1.15→1.16 min, 5%, 1.16→1.5 min, 5%). MS/MS used was AB Sciex TQ5500-MPX (Applied Biosystems).
Tmax: time to reach maximum plasma concentration
iv: intravenous administration
CL total: total clearance

Another data set relates to Male ICR mice. As to the kind of experiment: Mouse defecation experiment. To be noted: oral, mean±standard error. It counts as in vivo. The protocol: Mouse Defecation Experiment
Male ICR mice (6-7 weeks old) were used after an acclimation period for about 1 week. A test drug (1 mg/kg or 3 mg/kg) was suspended in 0.5% methylcellulose solution and orally administered at a volume of 10 mL/kg, and the number of feces 2 hr later was counted. Only 0.5% methylcellulose was administered to a solvent administration group.

As for `Cc1c(Cc2ccc(-c3cn(C)nn3)cc2)cc(C(=O)N[C@H]2CCOC[C@@H]2O)c2c1CCO2` [Example 1, 1,5-anhydro-2,3-dideoxy-3-[(4-methyl-5-{[4-(1-methyl-1H-1,2,3-triazol-4-yl)phenyl]methyl}-2,3-dihydro-1-benzofuran-7-carbonyl)amino]-L-threo-pentitol], the EC50 in data set [1] was 7.9 nM. For the same molecule, in data set [2], the clearance was 3.08 mL/min/kg, the MRT was found to be 108 min and the Tmax turned out to be 60 min. Moreover, in the data set with Male ICR mice (1 mg/kg), the “number of feces 2 hr later” value stood at 8.8 ± 2.1.
For `Cc1c(Cc2ccc(C(=O)NCC(=O)N(C)C)c(F)c2)cc(C(=O)N[C@H]2CCOC[C@@H]2O)c2c1CCO2` [Example 28, 1,5-anhydro-2,3-dideoxy-3-({5-[(4-{[2-(dimethylamino)-2-oxoethyl]carbamoyl}-3-fluorophenyl)methyl]-4-methyl-2,3-dihydro-1-benzofuran-7-carbonyl}amino)-L-threo-pentitol], the EC50 in data set [1] is 8.6 nM. In data set [2], the clearance was 18.9 mL/min/kg, the MRT was 36 min and the Tmax amounted to 48 min. Further, the “number of feces 2 hr later” value with Male ICR mice (1 mg/kg) is given as 7.2 ± 1.9. The “number of feces 2 hr later” value in the data set with Male ICR mice (3 mg/kg) came out at 6.2 ± 1.3.
On to `COCCNC(=O)c1ccc(Cc2cc(C(=O)N[C@H]3CCOC[C@@H]3O)c3c(c2C)CCO3)cc1F` [Example 27, 1,5-anhydro-2,3-dideoxy-3-{[5-({3-fluoro-4-[(2-methoxyethyl)carbamoyl]phenyl}methyl)-4-methyl-2,3-dihydro-1-benzofuran-7-carbonyl]amino}-L-threo-pentitol], for which the EC50 in data set [1] came out at 14 nM. Besides, in data set [2], the clearance was 19.6 mL/min/kg, the MRT turned out to be 42 min and the Tmax amounted to 60 min. The “number of feces 2 hr later” value with Male ICR mice (1 mg/kg) turned out to be 7.4 ± 0.9. Also, the “number of feces 2 hr later” value in the data set on Male ICR mice (3 mg/kg) was 6.2 ± 1.0.
In the case of `Cc1c(Cc2ccc(C(=O)NC[C@H]3CCCO3)c(F)c2)cc(C(=O)N[C@H]2CCOC[C@@H]2O)c2c1CCO2` [Example 29, 1,5-anhydro-2,3-dideoxy-3-[(5-{[3-fluoro-4-({[(2R)-oxolan-2-yl]methyl}carbamoyl)phenyl]methyl}-4-methyl-2,3-dihydro-1-benzofuran-7-carbonyl)amino]-L-threo-pentitol], the EC50 in data set [1] is 11 nM. In data set [2], the clearance is 27.5 mL/min/kg, the MRT came out at 36 min and the Tmax amounted to 30 min.
